Laboratory results taken from the NIST ThermoML archive (doi:10.1016/j.jct.2005.03.011).
± gives the expanded uncertainty stated by the source.

Settings: Crystal; for mass density: 298 K, 101.33 kPa, Pycnometric method; for Normal melting temperature: DTA

mass density [kg/m3]	Normal melting temperature [°C]	SMILES
1251 ± 2	35 ± 0.5	Clc1ccnc2ccccc12 [4-chloroquinoline]
	46 ± 0.5	Clc1ccc2ncccc2c1 [6-chloroquinoline]
1246 ± 2	38.4 ± 0.5	Clc1ccc2ccccc2n1 [2-chloroquinoline]
	92.4 ± 0.5	Clc1ccc2c(Cl)ccnc2c1 [4,7-dichloroquinoline]
